Data as given in patent US11845724B2, “USP30 inhibitors and uses thereof” (Vincere Biosciences, Inc., priority 2019, dated 2023).
pIC50: −log10 of the molar value. Read-outs that look alike come from different tables or passages of the source.

How the values were obtained:
[1] = target: T1, USP30 (Homo sapiens (Human), UniProt Q70CQ3); assay: Dundee MALDI-TOF mass spectrometry assay (IC50); format: biochemical; details: USP30 25 ng/μl, K48-linked diubiquitin 5.6 μM
In short: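 USP30 (25 ng/μl) preincubated with compound 5 min at RT in Tris/BSA/DTT buffer, then K48-linked diubiquitin (5.6 μM) added for 45 min at RT. Stopped with 2% TFA; cleavage quantified by MALDI-TOF mass spectrometry to give IC50.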

[2] = system: differentiated RenCell VM; assay: In-cell Tom20 loss assay; format: cell-based; details: 20 h after compound addition
Procedure: To evaluate Tom20 loss following treatment with compounds and/or antimycin/oligomycin, a96-well plate assay was performed on differentiated RenCell VM. These were seeded into laminin-coated 96-well plates at 5000 cells/well in normal growth medium (ReNcell NSC maintenance medium+20 ng/ml FDF-2 and 20 ng/ml EGF). After 3 days, growth medium was replaced with differentiation medium (ReNCell NSC medium+0.1 mM dibutyryl cAMP and 2 ng/ml GDNF). On days 1 and 4 following addition of differentiation medium, the media was removed and replaced with fresh differentiation medium. On the 7th day compounds or DMSO were added, and 1 hour later, some wells also received additions of oligomycin (1 uM and antimycin (1 uM). 20 h after compound addition, cells were fixed by adding formaldehyde to a final concentration of […], incubated 20 minutes at room temperature, then washed with PBS. Blocking buffer (3% bovine serum albumin, 2% fetal bovine serum, 0.2% Triton X100 in PBS) was added to all wells for two hours, then removed and replaced with blocking buffer containing antibody against Tom20 overnight. After washing with PBS, secondary antibody (Donkey anti-mouse conjugated to Cy3) was added along with DAPI to mark nuclei, and incubated two hours. After again washing with PBS, cells were imaged using GE INCell 6000 at 40× and quantified using HCA-based quantification algorithm of fluorescence density×area normalized to the number of nuclei.

[3] = target: recombinant USP30 (amino acids 57-517 of the human sequence) (Homo sapiens (Human), UniProt Q70CQ3); assay: In vitro USP30 biochemical assay (Ubiquitin-Rhodamine)
Procedure: In vitro biochemical assay to establish the potency of compounds for USP30 inhibition: a 384-well plate assay using a fluorophore tagged substrate of USP30 was used for in vitro screening of compounds. Each compound was tested at 10 different concentrations (0.5 to 10,000 nM) in duplicate wells. Compounds were pre-incubated at 25° C. for 30 min in an assay buffer consisting of 20 mM Tris/HCl, pH8.0, 1 mM GSH, 0.01% Triton X-100, 0.03% BGG and 1.5 nM recombinant USP30 (amino acids 57-517 of the human sequence with a C-terminal 6-His tag). Following the pre-incubation, Ubiquitin-Rhodamine substrate dissolved in the assay buffer was added at the final concentration of 25 nM to each well and plates were incubated at 25° C. for an additional 75 minutes. The reaction was stopped by adding 10 mM citric acid and fluorescence was read using excitation wavelength 485 nm, emission of 535 nm. Data were analyzed using Graph Pad Prism software with a four-parameter (floating slope) fit to log concentration data to determine IC50s.

[4] = target: T1, USP30; assay: Dundee MALDI-TOF mass spectrometry assay (% DUB activity remaining at 1 μM); format: biochemical; details: % DUB activity remaining at compound concentration of 1 μM; avg; read-out: Dundee % Activity at 1 μM (avg in vitro MS assay)
Procedure: Compounds were tested in a MALDI-TOF assay based on the paper by Ritorto et al. (Ritorto et al. Screening of DUB activity and specificity by MALDI-TOF mass spectrometry. Nat. Commun. 5:4763).
USP30 (25 ng/μl) tested against K48-linked diubiquitin (5.6 μM). USP30 was diluted in a buffer containing 40 mM Tris, 0.01% BSA, 1 mM DTT and K48 in 40 mM Tris, 0.01% BSA.
The compounds were pre-incubated with the USP30 for 5 mins at room temp before the K48 dimer addition. The assay mixture was then incubated for 45 mins at room temp. The assay was stopped by the addition of TFA to a final concentration of 2% (v/v).
Acidified samples of the DUB assays were mixed with 0.5 mM 15N-ubiquitin and then with one part of 2% (v/v) TFA and one part of 2,5 DHAP matrix solution (7.6 mg of 2,5 DHAP in […] ethanol and […] of an aqueous 12 mg ml 1 diammonium hydrogen citrate). Then 250 nl of these solutions were spotted onto an MTP AnchorChip 1,536 TF and this is analysed on the Bruker rapifleX MALDI-TOF.
Table 22 presents the Dundee MALDI-TOF values expressed as % DUB activity remaining at a compound concentration of 1 μM.

[5] = avg, read-out: Dundee IC50 μM (avg in vitro MS assay)
[6] = USP30 IC50 μM (avg), Ubiquitin-Rhodamine substrate 25 nM, 1.5 nM recombinant USP30
[7] = read-out: USP30 IC50 μM (avg), Ubiquitin-Rhodamine substrate 25 nM, 1.5 nM recombinant USP30

Chain of recombinant USP30 (amino acids 57-517 of the human sequence) (Q70CQ3 57-517): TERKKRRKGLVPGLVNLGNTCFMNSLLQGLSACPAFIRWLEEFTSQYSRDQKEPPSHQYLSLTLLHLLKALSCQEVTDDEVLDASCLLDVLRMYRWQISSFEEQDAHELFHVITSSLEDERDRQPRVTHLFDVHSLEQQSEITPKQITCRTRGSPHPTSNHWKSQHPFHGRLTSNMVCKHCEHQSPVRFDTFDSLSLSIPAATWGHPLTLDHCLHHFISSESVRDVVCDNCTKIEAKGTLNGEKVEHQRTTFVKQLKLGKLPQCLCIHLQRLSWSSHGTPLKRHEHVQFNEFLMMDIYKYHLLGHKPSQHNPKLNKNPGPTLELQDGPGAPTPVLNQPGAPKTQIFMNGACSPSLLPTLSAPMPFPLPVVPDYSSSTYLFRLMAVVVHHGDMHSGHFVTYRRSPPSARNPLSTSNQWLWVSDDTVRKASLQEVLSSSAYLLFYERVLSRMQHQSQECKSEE
T1 sequence (Q70CQ3 whole entry): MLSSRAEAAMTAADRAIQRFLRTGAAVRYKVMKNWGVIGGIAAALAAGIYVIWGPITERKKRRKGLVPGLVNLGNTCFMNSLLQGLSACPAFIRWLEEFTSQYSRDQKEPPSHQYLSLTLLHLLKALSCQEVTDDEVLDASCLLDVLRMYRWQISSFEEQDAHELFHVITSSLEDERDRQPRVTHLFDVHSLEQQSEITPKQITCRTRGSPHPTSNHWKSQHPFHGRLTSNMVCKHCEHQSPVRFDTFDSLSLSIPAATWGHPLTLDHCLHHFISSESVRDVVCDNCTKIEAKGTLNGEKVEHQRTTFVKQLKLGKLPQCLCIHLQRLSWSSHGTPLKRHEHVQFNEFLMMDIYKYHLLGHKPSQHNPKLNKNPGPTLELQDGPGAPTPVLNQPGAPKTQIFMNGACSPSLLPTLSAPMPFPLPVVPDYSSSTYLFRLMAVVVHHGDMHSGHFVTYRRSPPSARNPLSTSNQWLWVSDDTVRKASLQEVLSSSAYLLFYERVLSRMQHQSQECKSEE

Row | SMILES | IC50 [1, 5] | pIC50 [2] | IC50 [3, 6] | IC50 [3, 7] | IC50 ([1]; Dundee IC50 μM (avg in vitro MS assay)) | activity at 1 µM [4]
1 | O=C(N[C@@H](Cc1ccccc1)C(=O)Nc1cccc2c(S(=O)(=O)NC3COC3)cccc12)C1CCCCC1 [Compound I-130, (S)-N-(1-(5-(N-oxetan-3-ylsulfamoyl)naphthalen-1-ylamino)-1-oxo-3-phenylpropan-2-yl)cyclohexanecarboxamide] | 0.05 to 1 µM | < 5.00 | 0.05 to 1 µM | – | – | –
2 | CC(C)(C)NS(=O)(=O)c1ccc(NC(=O)C2Cc3ccccc3CN2C(=O)c2ccc(F)cc2)cc1 (stereo not shown) [Compound I-22, N-(4-(N-tert-Butylsulfamoyl)phenyl)-2-(4-fluorobenzoyl)-1,2,3,4-tetrahydroisoquinoline-3-carboxamide] | – | < 5.00 | 1 to 10 µM | – | 0.05 to 1 µM | 0 to 25%
3 | O=C(N[C@@H](Cc1ccccc1)C(=O)Nc1ccc(S(=O)(=O)NC2CCCC2)cc1)c1cccnc1 [Compound I-80, (S)-N-(1-(4-(N-cyclopentylsulfamoyl)phenylamino)-1-oxo-3-phenylpropan-2-yl)nicotinamide] | 0.05 to 1 µM | 5.00 to 6.00 | 0.05 to 1 µM | – | – | –

Second part, led by results:

Row | IC50 [1, 5] | pIC50 [2] | IC50 [3, 6] | IC50 [3, 7] | SMILES | IC50 ([1]; Dundee IC50 μM (avg in vitro MS assay)) | activity at 1 µM [4]
4 | < 0.05 µM | 6.00 to 6.30 | – | < 0.05 µM | O=C(N[C@@H](Cc1ccccc1)C(=O)Nc1ccc(S(=O)(=O)NC2CCOCC2)nc1)c1ccc(F)cc1 [Compound I-107, (S)-4-fluoro-N-(1-oxo-3-phenyl-1-(6-(N-(tetrahydro-2H-pyran-4-yl)sulfamoyl)pyridin-3-ylamino)propan-2-yl)benzamide] | – | –
5 | < 0.05 µM | ≥ 6.30 | – | < 0.05 µM | O=C(N[C@@H](Cc1ccccc1)C(=O)Nc1ccc(S(=O)(=O)NC2CCOCC2)cc1)c1ccc(F)cc1 [Compound I-34, (S)-4-fluoro-N-(1-oxo-3-phenyl-1-(4-(N-(tetrahydro-2H-pyran-4-yl)sulfamoyl)phenylamino)propan-2-yl)benzamide] | – | –
6 | < 0.05 µM | ≥ 6.30 | 0.05 to 1 µM | – | O=C(N[C@@H](Cc1ccccc1)C(=O)Nc1ccc(S(=O)(=O)NC23CC(C2)C3)nc1)c1ccc(F)cc1 [Compound I-104, (S)-N-(1-(6-(N-bicyclo[1.1.1]pentan-1-ylsulfamoyl)pyridin-3-ylamino)-1-oxo-3-phenylpropan-2-yl)-4-fluorobenzamide] | – | –
